From patent US20230288402A1, “MOLECULES TARGETING RIBOSOMAL PROTEIN RPL35/UL29 FOR USE IN THE TREATMENT OF DISEASES, IN PARTICULAR EPIDERMOLYSIS BULLOSA (EB)” (KBHB CONSULT GMBH, priority 2020, published 2023)

Columns and labels:
Lamb3-PTC-FF = test: In-vivo dual luciferase reporter read-out in yeast cells, Lamb3-PTC-FF reporter; assay type: cell-based; conditions: normalized to untreated control
Description: (§1) Luciferase read-out data are represented normalized to the individual luciferase reporter (Ren, Lamb3-FF, Lamb3-PTC-FF) read-outs in the untreated state set at 100% (normalizer); for renilla control—the untreated state—mean and standard deviation of quantifications from twelve biological replicates, each with six technical replicates (72 reads), are shown. For Lamb3-FF control—the untreated state—mean and standard deviation of quantifications from six biological replicates, each with six technical replicates (36 reads), are shown. For Lamb3-PTC control—the untreated state—mean and standard deviation of quantifications from two biological replicates, each with six technical replicates (12 reads), are shown. Quantification upon treatment with ART and ATZ, respectively, for both, Ren (216 reads) and Lamb3-FF (105 reads), is shown by combining read-out data obtained by treatment with 2, 4, and 10 μM ART and ATZ (treated), respectively, and is normalized to the respective untreated control (normalizer). For luciferase reporter read-outs of Lamb3-PTC-FF treated with 2 μM, 4 μM and 10 μM ART and 2, 4, and 10 nM ATZ, respectively, mean and standard deviation of quantification from two biological replicates for ART (12 reads) and three biological replicates for ATZ (18 reads), with six technical replicates each, are shown normalized to Lamb3-PTC-FF control.
(§2) Luciferase read-out data are represented normalized to the individual luciferase reporter (Lamb3-FF, Lamb3-PTC-FF, FF, and FF-PTC) of a respective control in the untreated state set at 100% (normalizer). Twelve biological replicates (n=12) for all detections. Normalization for treatment is shown, additional controls were run, but are not shown. Dosages: ART 2 μM, ATZ 1.6 nM and erythromycin 4 μM, respectively. Combination treatment […] are 50 nM and 0.08 nM, respectively, i.e. 40-fold and 20-fold less than individually applied compounds.
The inventors opted to first test small molecule action in the versatile yeast cell factory, employing the dual luciferase reporter system used in the original 2-SSRS (Bauer et al., 2013).

Lamb3-FF = test: In-vivo dual luciferase reporter read-out in yeast cells, Lamb3-FF reporter; assay type: cell-based; conditions: for protein expression level of Lamb3-FF luciferase reporter upon small molecule treatment: combined read-outs of 2, 4 and 10 μM; for increase for Lamb3-FF protein expression: not significant
Description: as §1
Obtaining evidence for drug directed manipulation of rpL35 to selectively increase full-length Lamb3-PTC expression has to be tested in functional assays. The inventors opted to first test small molecule action in the versatile yeast cell factory, employing the dual luciferase reporter system used in the original 2-SSRS (Bauer et al., 2013).

[1] = system: renilla luciferase reporter; test: In-vivo dual luciferase reporter read-out in yeast cells, renilla luciferase reporter; assay type: cell-based; conditions: combined read-outs of 2, 4 and 10 μM
Description: as §1, with “control. […]” for “control.”

Lamb3PTC = test: Hela in vitro translation assays; assay type: biochemical, human
human rpL35 [2] = molecular target: T1, human rpL35 (Homo sapiens, UniProt P42766); conditions: cited from earlier work
human rpL35 [3] = molecular target: T1, human rpL35; test: NMR titration series (2D 1H,15N HSQC) of 15N rpL35-His6 with ligand; assay type: binding; parameters: MBP (N, cleaved yes); made in house; host or cells: E. coli BL21; conditions: for number of amide signals with significant chemical shift perturbations: HSQC spectrum upon ligand addition; for binding to human rpL35 by NMR titration: changes in NMR spectra in presence of small molecule
Method: NMR experiments were recorded at 25° C. (298K) on a 700 MHz Bruker Ascend spectrometer equipped with cryogenically cooled TCI probe. All spectra were processed using Topspin 3.5 and analyzed with CARA 1.8.4.2. (Keller R. Optimizing the Process of Nuclear Magnetic Resonance Spectrum Analysis and Computer Aided Resonance Assignment. ETH Zurich; 2004) and NMRFAM-Sparky (Lee W, Tonelli M, Markley J L. NMRFAM-SPARKY: enhanced software for biomolecular NMR spectroscopy. Bioinformatics. 2015 Apr. 15; 31(8):1325-7). Concentration of ^15N labeled rpL35-His6 ranged from 200 to 400 μM and the sample was measured in a salt tolerant susceptibility matched slot tube (Shigemi™) with total volume of 170 μl.
NMR spectroscopy is able by comparative analysis of protein vs. protein+small molecule binder to asses binding sites of the small molecule on the protein. In this initial study the affinity of rpL35 towards artesunate and atazanavir was established by a simple titration series in which the inventors have been tracking perturbations to chemical shifts and peak heights in the 2D ^1H, ^15N HSQC spectrum. Aliquots of artesunate/atazanavir were added into the solution of ^15N rpL35 of which 2D 1H, ^15N HSQC spectrum was recorded immediately upon ligand addition. Perturbations of protein chemical shifts in ^15N HSQC spectrum are indicative of changes to the chemical environment of amide groups caused by binding of a ligand to the protein target.
Following the artesunate-protein rpL35 complex titration, the inventors have recorded 3D spectra of the same sample using ^15N NOESY-HSQC, ^15N TOCSY-HSQC, HNHA pulse sequences. The inventors extracted chemical shifts of amide ^1H, ^15N, HA, HB from the above mentioned spectra, and compared measured values with the average chemical shifts of common amino acids in Biological Magnetic resonance Data Bank (BMRB; http://www.bmrb.wisc.edu). In the 3D ^1H, ^15N NOESY-HSQC the inventors focused also on the presence of water signal which can indicate if the amino group is solvent accessible. […] However, collection of the basic set of chemical shifts mentioned earlier allowed the inventors to estimate amino acid type since many of them have quite characteristic values (e. g. alanine, threonine, and glycine). 3D ^15N TOCSY-HSQC helped the inventors to differentiate between amino acid types which have similar NH chemical shifts, such as leucine, lysine, valine. […] Using this approach the inventors obtained a set of protein signals which changed their position in 2D ^1H^15N-HSQC spectrum upon interaction with the ligand (artesunate, atazanavir) and information on the most probable amino acid type. […]

FF-PTC = test: In-vivo dual luciferase reporter read-out in yeast cells, FF-PTC reporter; assay type: cell-based; conditions: erythromycin 4 μM; indicator of lack of specific activity
Method: as §2

[4] = system: Lamb3 protein with the R635XPTC mutation; conditions: very high, therapeutically not applicable dose; cited from earlier work
laminin 332 = conditions: primary keratinocytes from three GS-JEB patients; cited from earlier work

Compound | increase in full-length Lamb3-PTC-FF protein expression (Lamb3-PTC-FF; treatment with 2 μM) [fold] | protein expression level of Lamb3-FF luciferase reporter upon small molecule treatment (Lamb3-FF) | increase for Lamb3-FF protein expression (Lamb3-FF; treatment with 4 μM) | increase for Lamb3-FF protein expression (Lamb3-FF; treatment with 10 μM) [fold] | protein expression level of renilla luciferase reporter upon small molecule treatment [1] | Lamb3PTC expression (Lamb3PTC) | binding to human rpL35 in biotinylation assay (human rpL35 [2]) | number of amide signals with significant chemical shift perturbations (human rpL35 [3]) | binding to human rpL35 by NMR titration (human rpL35 [3]) | increase in full-length Lamb3-PTC-FF protein expression (Lamb3-PTC-FF; treatment with 4 μM) [fold] | increase in full-length Lamb3-PTC-FF protein expression (Lamb3-PTC-FF; treatment with 10 μM) [fold] | FF-PTC reporter read-out upon treatment (FF-PTC) | Lamb3 protein expression relative to normal level [4] [%] | induction of functional laminin 332 (laminin 332)
C[C@H]1[C@H](OC(=O)CCC(=O)O)O[C@@H]2O[C@@]3(C)CC[C@H]4[C@H](C)CC[C@@H]1[C@@]24OO3 [artesunate] | 2.2 | no significant increase | 1,1 fold | 1.2 | no significant increase | increase | binder of human rpL35 | 10 | bind human rpL35 protein at several possible binding pockets |  |  |  |  | 
COC(=O)N[C@H](C(=O)N[C@@H](Cc1ccccc1)[C@@H](O)CN(Cc1ccc(-c2ccccn2)cc1)NC(=O)[C@@H](NC(=O)OC)C(C)(C)C)C(C)(C)C [atazanavir] | 1.8 | no significant increase |  |  | no significant increase | increase |  | 5 | bind human rpL35 protein at several possible binding pockets | 1.9 | 2.2 |  |  | 
CC[C@H]1OC(=O)[C@H](C)[C@@H](O[C@H]2C[C@@](C)(OC)[C@@H](O)[C@H](C)O2)[C@H](C)[C@@H](O[C@@H]2O[C@H](C)C[C@H](N(C)C)[C@H]2O)[C@](C)(O)C[C@@H](C)C(=O)[C@H](C)[C@@H](O)[C@]1(C)O [erythromycin] |  |  |  |  |  |  |  |  |  |  |  | increase |  | 
gentamicin |  |  |  |  |  |  |  |  |  |  |  |  | 30 | induced functional laminin 332
